The values below are quoted from earlier work in US20240238196A1 (Shilpa Medicare Limited, priority 2021, published 2024).

The structures appear in SMILES notation.

Consider `O=C(NC[C@H]1CN(c2ccc(N3CCOCC3=O)cc2)C(=O)O1)c1ccc(Cl)s1` [Rivaroxaban, 5-Chloro-N-({(5S)-2-oxo-3-[4-(3-oxo-4-morpholinyl)phenyl]-1,3-oxazolidin5-yl}methyl)-2-thiophenecarboxamide], for which, under “organic solvents, slightly soluble, according to CHMP assessment report for Xarelto”, the “Solubility in organic solvents” value was 1000 to 10000 µg/mL. Besides, the “Solubility in water (in words)” value (water) is reported as “practically insoluble”.
